Like-named read-outs stand apart in the source and are kept apart here. Starred links: 1 amine or outer side, 2 acyl side, 3 side chain; linkers in the order of their positions; H or OH if unused. Positions of bridges follow the written chain, without caps; N, C: chain ends. Non-standard residues stand in square brackets, D forms with d. Residues, ends and D or L forms follow the SMILES beside them. ξ: configuration not given here. X8 = COc1cccc(-c2[nH]c3ccccc3c2C[C@H](N[*:1])C(=O)[*:2])c1; Phe(4-SO2NH2) = N[C@@H](Cc1ccc(S(N)(=O)=O)cc1)C(=O)O; Phe(3-CF3) = N[C@@H](Cc1cccc(C(F)(F)F)c1)C(=O)O; Phe(4-CH2NH2) = NCc1ccc(C[C@H](N)C(=O)O)cc1; Phe(4-NH2) = Nc1ccc(C[C@H](N)C(=O)O)cc1; Hyp = O=C(O)[C@@H]1C[C@@H](O)CN1; NMeF = CN[C@@H](Cc1ccccc1)C(=O)O; NMeNle = CCCC[C@H](NC)C(=O)O; ξR = N=C(N)NCCCC(N)C(=O)O; NMeA = CN[C@@H](C)C(=O)O; Dap = NC[C@H](N)C(=O)O; Sar = CNCC(=O)O
What was measured:
Human PD-L1/PD-1 = target: T1, Human PD-L1/PD-1 (Homo sapiens, UniProt Q9NZQ7); test: HTRF PD-1-Ig/PD-L1-His binding assay (human PD-L1)
T1 construct: made in house; host or cells: HEK293T
In short: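 Interaction of Fc-tagged soluble PD-1 with His-tagged soluble PD-L1 is monitored by time-resolved FRET. Donor is europium cryptate anti-Ig (1 nM final) and acceptor is APC anti-His (20 nM final). Assay buffer is dPBS with 0.1% BSA and 0.05% Tween-20.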

[1] = target: T2, LK35.2-hPD-L1 cells / PE-labeled PD-1-Ig (Homo sapiens, UniProt Q9NZQ7); test: LK35.2-hPD-L1 cell binding high-content screening assay; format: cell-based
T2 construct: expressed in transfected cells; host or cells: LK35.2 mouse B cell line
In short: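 Using overnight-cultured LK35.2-hPD-L1 mouse B cells, compound was co-incubated with phycoerythrin-tagged human PD-1-Ig (final 1 nM) at 37 °C for one hour. Unbound label was removed by triple dPBS washing prior to high-content image acquisition and analysis.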

[2] = cluster symbol, read-out: HTRF IC50 cluster
[3] = cluster symbol, cell line of CBA not given (LK35.2-hPD-L1 or 293T-hPD-L1), read-out: CBA IC50 cluster
[4] = cell binding assay, cell line not given, cluster symbol, read-out: CBA IC50 cluster

T2 sequence (Q9NZQ7 19-290): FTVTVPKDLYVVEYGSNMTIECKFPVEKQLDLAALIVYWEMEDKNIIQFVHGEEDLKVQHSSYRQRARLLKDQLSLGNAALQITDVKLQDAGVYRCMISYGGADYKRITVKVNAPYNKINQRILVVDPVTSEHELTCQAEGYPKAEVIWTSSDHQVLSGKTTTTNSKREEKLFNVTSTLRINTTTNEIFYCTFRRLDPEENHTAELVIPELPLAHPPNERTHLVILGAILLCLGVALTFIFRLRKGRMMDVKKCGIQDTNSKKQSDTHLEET
T1 sequence (Q9NZQ7 with tags, fused parts or gaps): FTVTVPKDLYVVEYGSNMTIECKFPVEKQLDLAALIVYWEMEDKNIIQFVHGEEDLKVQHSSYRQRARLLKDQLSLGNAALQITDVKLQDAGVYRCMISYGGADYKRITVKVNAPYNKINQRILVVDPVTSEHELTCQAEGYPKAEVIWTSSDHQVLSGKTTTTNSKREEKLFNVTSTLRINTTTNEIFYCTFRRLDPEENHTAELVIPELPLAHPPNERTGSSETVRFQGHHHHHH

| SMILES | IC50 (Human PD-L1/PD-1; [2]) | IC50 [1, 3] | IC50 (Human PD-L1/PD-1; value given instead of cluster, read-out: HTRF IC50 value) | IC50 ([1]; cell binding assay, cell line not given, value given instead of cluster, read-out: CBA IC50 value) | IC50 [1, 4] |
| --- | --- | --- | --- | --- | --- |
| CCCC[C@H]1C(=O)N(C)[C@@H](CCCC)C(=O)N[C@@H](CCCNC(=N)N)C(=O)N[C@H](C(=O)NCC(N)=O)CSCC(=O)N[C@@H](Cc2ccc(S(N)(=O)=O)cc2)C(=O)N(C)[C@@H](C)C(=O)N[C@@H](CC(N)=O)C(=O)N2CCC[C@H]2C(=O)N[C@@H](Cc2cnc[nH]2)C(=O)N[C@@H](CC(C)C)C(=O)N(C)CC(=O)N[C@@H](Cc2c[nH]c3ccccc23)C(=O)N[C@@H](CO)C(=O)N[C@@H](Cc2c[nH]c3ccccc23)C(=O)N1C [Example 1093] ({CH2CO}-[Phe(4-SO2NH2)][NMeA]NPHL[Sar]WSW[NMeNle][NMeNle]RCG-NH2; thioether N-14) | > 30.5 nM | > 74.3 nM | – | – | – |
| CCCC[C@H]1C(=O)N(C)CC(=O)N[C@@H](CC(=O)O)C(=O)N[C@@H](C(C)C)C(=O)N(C)[C@@H](Cc2ccccc2)C(=O)N[C@@H](Cc2ccc(O)cc2)C(=O)N(C)CC(=O)N[C@@H](Cc2cccc(C(F)(F)F)c2)C(=O)N[C@@H](Cc2ccc(O)cc2)C(=O)N[C@@H](CC(C)C)C(=O)N[C@H](C(=O)NCC(N)=O)CSCC(=O)N[C@@H](Cc2ccccc2)C(=O)N(C)[C@@H](Cc2ccccc2)C(=O)N1C [Example 3550] ({CH2CO}-F[NMeF][NMeNle][Sar]DV[NMeF]Y[Sar][Phe(3-CF3)]YLCG-NH2; thioether N-13) | – | – | 40.9 nM | 149 nM | – |
| CCCC[C@H]1C(=O)N(C)CC(=O)N[C@@H](CC(=O)O)C(=O)N[C@@H](C(C)C)C(=O)N[C@@H](Cc2ccc(CN)cc2)C(=O)N[C@@H](Cc2ccc(O)cc2)C(=O)N(C)CC(=O)N[C@@H](Cc2c[nH]c3ccccc23)C(=O)N[C@@H](Cc2ccc(O)cc2)C(=O)N[C@@H](CC(C)C)C(=O)N[C@H](C(=O)NCC(N)=O)CSCC(=O)N[C@@H](Cc2ccccc2)C(=O)N(C)[C@@H](Cc2ccccc2)C(=O)N1C [Example 3523] ({CH2CO}-F[NMeF][NMeNle][Sar]DV[Phe(4-CH2NH2)]Y[Sar]WYLCG-NH2; thioether N-13) | > 30.5 nM | – | – | – | > 74.3 nM |
| CCCC[C@H]1C(=O)N(C)[C@@H](CCCC)C(=O)N[C@@H](C)C(=O)N[C@H](C(=O)NCC(=O)O)CSCC(=O)N[C@@H](Cc2ccc(O)cc2)C(=O)N(C)[C@@H](C)C(=O)N[C@@H](CC(N)=O)C(=O)N2CCC[C@H]2C(=O)N[C@@H](Cc2cnc[nH]2)C(=O)N[C@@H](CC(C)C)C(=O)N[C@@H](CCCN)C(=O)N[C@@H](Cc2c[nH]c3ccccc23)C(=O)N[C@@H](CO)C(=O)N[C@@H](Cc2csc3ccccc23)C(=O)N1C [Example 1153] | > 30.5 nM | 4.78 to 72.9 nM | – | – | – |

Further lines, results first:

| IC50 (Human PD-L1/PD-1; [2]) | IC50 [1, 3] | IC50 (Human PD-L1/PD-1; value given instead of cluster, read-out: HTRF IC50 value) | IC50 ([1]; cell binding assay, cell line not given, value given instead of cluster, read-out: CBA IC50 value) | IC50 [1, 4] | SMILES |
| --- | --- | --- | --- | --- | --- |
| 6.76 to 30.3 nM | – | – | – | 4.78 to 72.9 nM | CCCC[C@H]1C(=O)N(C)[C@@H](CCCC)C(=O)N[C@@H](CCCNC(=N)N)C(=O)N[C@H](C(=O)NCC(N)=O)CSCC(=O)N[C@@H](Cc2ccc(O)cc2)C(=O)N(C)[C@@H](C)C(=O)N[C@@H](CC(N)=O)C(=O)N2CCC[C@H]2C(=O)N[C@@H](CN)C(=O)N[C@@H](CC(C)C)C(=O)N2C[C@H](O)C[C@H]2C(=O)N[C@@H](Cc2c[nH]c3ccccc23)C(=O)N[C@@H](CC(=O)O)C(=O)N[C@@H](Cc2c[nH]c3ccccc23)C(=O)N1C [Example 5057] ({CH2CO}-Y[NMeA]NP[Dap]L[Hyp]WDW[NMeNle][NMeNle]RCG-NH2; thioether N-14) |
| 0.385 to 6.74 nM | – | – | – | 4.78 to 72.9 nM | CCCC[C@H]1C(=O)N(C)[C@@H](CCCC)C(=O)NC(CCCNC(=N)N)C(=O)N[C@H](C(=O)NCC(N)=O)CSCC(=O)N[C@@H](Cc2ccc(O)cc2)C(=O)N(C)[C@@H](C)C(=O)N[C@@H](CC(N)=O)C(=O)N2CCC[C@H]2C(=O)N[C@@H](CN)C(=O)N[C@@H](CC(C)C)C(=O)N2C[C@H](O)C[C@H]2C(=O)N[C@@H](Cc2c[nH]c3ccccc23)C(=O)N[C@@H](CO)C(=O)N[C@@H](Cc2c(-c3cccc(OC)c3)[nH]c3ccccc23)C(=O)N1C (some centres unmarked) [Example 7003] ({CH2CO}-Y[NMeA]NP[Dap]L[Hyp]WS[X8][NMeNle][NMeNle][ξR]CG-NH2; thioether N-14) |
| 6.76 to 30.3 nM | 4.78 to 72.9 nM | – | – | – | CCCC[C@H]1C(=O)N(C)CC(=O)N[C@@H](CC(=O)O)C(=O)N[C@@H](C(C)C)C(=O)N(C)[C@@H](Cc2ccccc2)C(=O)N[C@@H](Cc2ccc(N)cc2)C(=O)N(C)CC(=O)N[C@@H](Cc2c[nH]c3ccccc23)C(=O)N[C@@H](Cc2ccc(O)cc2)C(=O)N[C@@H](CC(C)C)C(=O)N[C@H](C(=O)NCC(N)=O)CSCC(=O)N[C@@H](Cc2ccccc2)C(=O)N(C)[C@@H](Cc2ccccc2)C(=O)N1C [Example 3139] ({CH2CO}-F[NMeF][NMeNle][Sar]DV[NMeF][Phe(4-NH2)][Sar]WYLCG-NH2; thioether N-13) |

Source: patent US9850283B2, “Macrocyclic inhibitors of the PD-1/PD-L1 and CD80(B7-1)/PD-L1 protein/protein interactions” (BRISTOL-MYERS SQUIBB COMPANY, priority 2013, dated 2017)
